In patent publication US10934326B2, “Peripheral modifications on pocket-redesigned vancomycin analogs synergistically improve antimicrobial potency and durability” (priority 2016, dated 2021):
Values after ≈ are worked out from the molar mass of the structure shown.

Tests used:
[1] = tested on: Enterococcus faecium (VanA VRE, ATCC BAA-2317); assay: In vitro antimicrobial assay (MIC), VanA E. faecium; assay type: cell-based; conditions: for antibiotic susceptibility profile of the strain: VanA E. faecium ATCC BAA-2317; for MIC: Enterococcus faecium, read-out: Antimicrobial Activity, MIC, VanA E. faecium
Description: (§1) One day before a study was run, fresh cultures of vancomycin-sensitive Staphylococcus aureus (VSSA strain ATCC 25923), methicillin and oxacillin-resistant Staphylococcus aureus subsp. aureus (MRSA strain ATCC 43300), vancomycin-resistant Enterococcus faecalis (VanA VRE, BM4166), Enterococcus faecium (VanA VRE, ATCC BAA-2317), vancomycin-resistant Enterococcus faecalis (VanB VRE, strain ATCC 51299), Escherichia coli (ATCC 25922), Acinetobacter baumannii (ATCC BAA-1710), Pseudomonas aeruginosa (ATCC 15442), Klebsiella pneumoniae (ATCC 700603) were inoculated and grown in an orbital shaker at 37° C. in 100% Mueller-Hinton broth (VSSA, MRSA and VanB VRE), 100% brain-heart infusion broth (VanA VRE, A. baumannii and K. pneumoniae) or 100% Luria broth (E. coli and P. aeruginosa). After 24 hours, the bacterial stock solutions were serially diluted with the culture medium (10% Mueller-Hinton broth for VSSA, MRSA and VanB VRE or 10% brain-heart infusion broth for VanA VRE A. baumannii and K. pneumoniae or 10% Luria Broth for E. coli and P. aeruginosa) to achieve a turbidity equivalent to a 1:100 dilution of a 0.5 M McFarland solution. This diluted bacterial stock solution was then inoculated in a 96-well V-shaped glass coated microtiter plate, supplemented with serial diluted aliquots of the antibiotic solution in DMSO (4 μL), to achieve a total assay volume of 0.1 mL. The plate was then incubated at 37° C. for 18 hours, after which minimal inhibitory concentrations (MICs) were determined by monitoring the cell growth (observed as a pellet) in the wells.
(§2) The lowest concentration of antibiotic (in μg/mL) capable of eliminating cell growth in the wells is the reported MIC value. The reported MIC values for the vancomycin analogues were determined against vancomycin as a standard in the first well.*
(§3) [*Clinical and Laboratory Standards Institute. Methods for Dilution Antimicrobial Susceptibility Tests for Bacteria That Grow Aerobically; Approved Standard, 7th ed.; CLSI document M07-A8; Clinical and Laboratory Standards Institute: Wayne, Pa., 2009.]

[2] = tested on: vancomycin-resistant Enterococcus faecalis (VanA VRE, BM4166); assay: In vitro antimicrobial assay (MIC), VanA E. faecalis; assay type: cell-based; conditions: for antibiotic susceptibility profile of the strain: VanA E. faecalis BM 4166; for MIC: Enterococcus faecalis, VRE, read-out: Antimicrobial Activity, MIC, VanA E. faecalis
Description: as §1, §2, §3

[3] = tested on: Enterococcus faecium (VanA VRE, ATCC BAA-2317); conditions: previously reported data; cited from earlier work
[4] = tested on: vancomycin-resistant Enterococcus faecalis (VanA VRE, BM4166); conditions: BM 4166; previously reported data; cited from earlier work
[5] = tested on: VanA VRE (E. faecalis BM 4166 and E. faecium ATCC BAA-2317); assay: Cell wall permeability assay (propidium iodide uptake); assay type: cell-based, Enterococcus faecalis; Enterococcus faecium
Description: The effect of the compounds on cell membrane permeability was examined by measuring cytoplasmic membrane uptake of the fluorescent probe propidium iodide in the same VanA vancomycin-resistant E. faecalis (BM 4166) and E. faecium (ATCC BAA-2317) strains. This fluorescent probe only enters cells with permeabilized cell membranes and is detected by the emission of fluorescence upon intracellular nucleic acid binding [Boulos et al., J Microbiol Methods 1999, 37(1):77-86].
Fresh, mid-log phase VanA VRE in pH 7.2 buffer at 25° C. were preincubated with propidium iodide (10 μM) for 5 minutes before the test compounds were added, monitoring the fluorescence emission at 617 nm (excitation at 535 nm) over time, both pre (5 minutes) and post (15 minutes) compound addition. Rapid and sustained increases in fluorescence intensity are observed immediately upon addition of test compounds that induce bacterial cell membrane permeability.
One day before a study was run, cultures of vancomycin-resistant Enterococcus faecalis (VanA VRE, BM4166) and Enterococcus faecium (VanA VRE, ATCC BAA-2317), were inoculated and grown in an orbital shaker at 37° C. in 100% brain-heart infusion broth for 12 hours. The above bacterial solution was subjected to a subculture to obtain fresh mid-log phase bacterial cells (total volume of bacterial suspension=7 mL, incubation time=6 hours, OD600=0.6). After the cultured bacteria were harvested (3000 rpm, 4° C., 20 minutes), the white bacterial precipitate was washed and resuspended in 5 mM glucose and 5 mM HEPES buffer (1:1, 500 μL, pH=7.2).
This bacterial suspension (130 μL) was charged into a 96-well black plate with a clear bottom (Corning 3650). The propidium iodide dye (10 μL, 150 μM DMSO solution) was added to the above suspension and the fluorescence was monitored at 25° C. for 5 minutes at 30 second intervals using a microplate reader (Molecular Devices®, Max Gemini EX) at an excitation wavelength of 535 nm and an emission wavelength of 617 nm. The test compound (150 μM, 10 μL) was added to the cell suspension and the fluorescence was monitored at 25° C. for an additional 15 minutes.

Compound	antibiotic susceptibility profile of the strain [1]	MIC [1] [µg/mL]	MIC [2] [µg/mL]	other results
CC[C@H]1OC(=O)[C@H](C)[C@@H](O[C@H]2C[C@@](C)(OC)[C@@H](O)[C@H](C)O2)[C@H](C)[C@@H](O[C@@H]2O[C@H](C)C[C@H](N(C)C)[C@H]2O)[C@](C)(O)C[C@@H](C)C(=O)[C@H](C)[C@@H](O)[C@]1(C)O [erythromycin]	resistant			antibiotic susceptibility profile of the strain [2]: resistant
CCCCCCCCCCCCCC[N+](C)(C)CCCNC(=O)[C@H]1NC(=O)[C@H]2NC(=O)[C@@H](NC(=O)[C@@H]3NC(=O)[C@H](CC(N)=O)NC(=O)[C@H](NC(=O)[C@@H](CC(C)C)NC)[C@H](O)c4ccc(c(Cl)c4)Oc4cc3cc(c4OC3OC(CO)C(O)[C@H](O)[C@@H]3O[C@H]3CC(C)(NCc4ccc(-c5ccc(Cl)cc5)cc4)[C@H](O)[C@H](C)O3)Oc3ccc(cc3Cl)[C@H]2O)c2ccc(O)c(c2)-c2c(O)cc(O)cc21 (stereo partly drawn) [Compound 17]		2	2	
teicoplanin	resistant			antibiotic susceptibility profile of the strain [2]: resistant
CN[C@H](CC(C)C)C(=O)N[C@H]1C(=O)N[C@@H](CC(N)=O)C(=O)N[C@H]2C(=O)N[C@@H]3C(=O)N[C@H](C(=O)N[C@H](C(=O)NCCC[N+]4(C)CCCC4)c4cc(O)cc(O)c4-c4cc3ccc4O)[C@H](O)c3ccc(c(Cl)c3)Oc3cc2cc(c3OC2OC(CO)C(O)[C@H](O)[C@@H]2O[C@H]2CC(C)(NCc3ccc(-c4ccc(Cl)cc4)cc3)[C@H](O)[C@H](C)O2)Oc2ccc(cc2Cl)[C@H]1O (stereo partly drawn) [Compound 16]		2	2	
CC1(C)S[C@@H]2[C@H](NC(=O)Cc3ccccc3)C(=O)N2[C@H]1C(=O)O [benzylpenicillin]	resistant			
CC1(C)S[C@@H]2[C@H](NC(=O)[C@H](N)c3ccccc3)C(=O)N2[C@H]1C(=O)O [ampicillin]	resistant			
CNC(CC(C)C)C(=O)NC1C(=O)NC(CC(N)=O)C(=O)NC2C(=N)NC3C(=O)NC(C(=O)NC(C(=O)O)c4cc(O)cc(O)c4-c4cc3ccc4O)C(O)c3ccc(c(Cl)c3)Oc3cc2cc(c3OC2OC(CO)C(O)C(O)C2OC2CC(C)(N)C(O)C(C)O2)Oc2ccc(cc2Cl)[C@@H]1O (stereo partly drawn) [Compound 3]				Antimicrobial Activity, MIC, VanA E. faecium [3]: 0.5 µg/mL; Antimicrobial Activity, MIC, VanA E. faecalis [4]: 0.5 µg/mL
CCN(CC)CCS(=O)(=O)[C@@H]1CCN2C(=O)c3coc(n3)CC(=O)C[C@H](O)/C=C(C)/C=C/CNC(=O)/C=C/[C@@H](C)[C@@H](C(C)C)OC(=O)[C@@H]12 [dalfopristine]	sensitive			
CN[C@H](CC(C)C)C(=O)N[C@H]1C(=O)N[C@@H](CC(N)=O)C(=O)N[C@H]2C(=O)N[C@@H]3C(=O)N[C@H](C(=O)N[C@H](C(=O)NCCC[N+]4(C)CCCC4)c4cc(O)cc(O)c4-c4cc3ccc4O)[C@H](O)c3ccc(c(Cl)c3)Oc3cc2cc(c3OC2OC(CO)C(O)[C@H](O)[C@@H]2O[C@H]2CC(C)(N)[C@H](O)[C@H](C)O2)Oc2ccc(cc2Cl)[C@H]1O (stereo partly drawn) [Compound 11]		2	4	induced cell membrane permeability (propidium uptake) ([5]; 10 μM compound): produced pronounced, rapid cell membrane permeability
CN[C@H](CC(C)C)C(=O)N[C@H]1C(=O)N[C@@H](CC(N)=O)C(=O)N[C@H]2C(=O)N[C@@H]3C(=O)N[C@H](C(=O)N[C@H](C(=O)NCCCN(C)C)c4cc(O)cc(O)c4-c4cc3ccc4O)[C@H](O)c3ccc(c(Cl)c3)Oc3cc2cc(c3OC2OC(CO)C(O)[C@H](O)[C@@H]2O[C@H]2CC(C)(NCc3ccc(-c4ccc(Cl)cc4)cc3)[C@H](O)[C@H](C)O2)Oc2ccc(cc2Cl)[C@H]1O (stereo partly drawn) [Compound 14]		5 (≈ 2.88 µM)	5 (≈ 2.88 µM)	
gentamicin				antibiotic susceptibility profile of the strain [2]: resistant
CN[C@H](CC(C)C)C(=O)N[C@H]1C(=O)N[C@@H](CC(N)=O)C(=O)N[C@H]2C(=O)N[C@@H]3C(=O)N[C@H](C(=O)N[C@H](C(=O)NCCCN(C)C)c4cc(O)cc(O)c4-c4cc3ccc4O)[C@H](O)c3ccc(c(Cl)c3)Oc3cc2cc(c3OC2OC(CO)C(O)[C@H](O)[C@@H]2O[C@H]2CC(C)(N)[C@H](O)[C@H](C)O2)Oc2ccc(cc2Cl)[C@H]1O (stereo partly drawn) [Compound 9]		500 (≈ 326 µM)	500 (≈ 326 µM)	induced cell membrane permeability (propidium uptake) ([5]; 10 μM compound): did not do so
O=C(N[C@H](CO)[C@H](O)c1ccc([N+](=O)[O-])cc1)C(Cl)Cl [chloramphenicol]				antibiotic susceptibility profile of the strain [2]: resistant
CN[C@H](CC(C)C)C(=O)N[C@H]1C(=O)N[C@@H](CC(N)=O)C(=O)N[C@H]2C(=O)N[C@@H]3C(=O)N[C@H](C(=O)N[C@H](C(=O)NCCC[N+](C)(C)C)c4cc(O)cc(O)c4-c4cc3ccc4O)[C@H](O)c3ccc(c(Cl)c3)Oc3cc2cc(c3OC2OC(CO)C(O)[C@H](O)[C@@H]2O[C@H]2CC(C)(N)[C@H](O)[C@H](C)O2)Oc2ccc(cc2Cl)[C@H]1O (stereo partly drawn) [Compound 10]		126	63	induced cell membrane permeability (propidium uptake) ([5]; 10 μM compound): did not do so; induced cell membrane permeability (propidium uptake) ([5]; 100 μM compound): exhibited this induced permeability
